Assays:
Vero E6 cells = conditions: parallel plates
SARS-CoV-2 = type: cell-based

Row | SMILES | compound cytotoxicity (in words) (Vero E6 cells) | effect on SARS-CoV-2 viral RNA in supernatants / replication (in words) (SARS-CoV-2) | potency at 48 hpi compared with 24 hpi (in words) (SARS-CoV-2) | IC50 (SARS-CoV-2; read-out: IC50, SARS-CoV-2 viral RNA in supernatants)
1 | Cc1nc2ccc(Br)cc2c(-c2ccc(Cl)cc2)c1C(OC(C)(C)C)C(=O)O (centres unmarked) [ALLINI-2] | without apparent cytotoxicity | modestly inhibited |  | 
2 | CCOC(=O)[C@H]1O[C@@H]1C(=O)N[C@@H](CC(C)C)C(=O)NCCC(C)C [E64D] | minimal cytotoxicity | substantially decreased | less potent | 3.3 µM
3 | CC(C)CN(C[C@@H](O)[C@H](Cc1ccccc1)NC(=O)O[C@H]1CCOC1)S(=O)(=O)c1ccc(N)cc1 [amprenavir] | without apparent cytotoxicity | modestly inhibited |  | 
4 | Cc1cccc(/C=N/Nc2cc(N3CCOCC3)nc(OCCc3ccccn3)n2)c1 [apilimod] | minimal cytotoxicity | substantially decreased | less potent | 
5 | Cc1ccnc2c1NC(=O)c1cccnc1N2C1CC1 [nevirapine] | without apparent cytotoxicity | modestly inhibited |  | 
6 | CCC(CC)COC(=O)[C@H](C)N[P@](=O)(OC[C@H]1O[C@@](C#N)(c2ccc3c(N)ncnn23)[C@H](O)[C@@H]1O)Oc1ccccc1 [remdesivir] |  | substantially decreased |  | 

— article PMC7325174 (bioRxiv, 2020)
